Values quoted from earlier work as cited in PMC11901438, “Synthesis and Evaluation of Boron-Containing Heterocyclic Compounds with Antimicrobial and Anticancer Activities” (Molecules, 2025).
Converted amounts (≈) assume the structure as drawn.

Test system: Mycobacterium tuberculosis
Design: method as in PMID 33410233
Conditions: earlier work of the same laboratory; cited from earlier work

SMILES | MIC90 (CIM90) anti-Mycobacterium tuberculosis [µM]
O=C(Nc1ccc(N2CCCCCC2)c(F)c1)c1ccc2no[n+]([O-])c2c1 [Compound 6] | 2.89 (≈ 1.07 µg/mL)
O=C(Nc1ccc(N2CCN(c3ccc(F)cc3)CC2)c(F)c1)c1ccc2no[n+]([O-])c2c1 [Compound 3] | 3.82 (≈ 1.72 µg/mL)
O=C(Nc1ccc(N2CCN(c3ccccn3)CC2)c(F)c1)c1ccc2no[n+]([O-])c2c1 [Compound 1] | 0.09 (≈ 0.0391 µg/mL)
O=C(Nc1ccc(N2CCSCC2)c(F)c1)c1ccc2no[n+]([O-])c2c1 [Compound 4] | 0.70 (≈ 0.262 µg/mL)
O=C(Nc1ccc(N2CCN(c3ncccn3)CC2)c(F)c1)c1ccc2no[n+]([O-])c2c1 [Compound 2] | 2.22 (≈ 0.967 µg/mL)
O=C(Nc1ccc(N2CCOCC2)c(F)c1)c1ccc2no[n+]([O-])c2c1 [Compound 5] | 5.22 (≈ 1.87 µg/mL)
